Results on 3 molecules are retold here after patent publication US20130064878A1, “WOUND HEALING COMPOSITIONS AND METHODS” (UNIVERSITY OF NOTRE DAME DU LAC, priority 2011, published 2013).

Each structure is given as a SMILES string.

The subject of test [1] is wounds of female wild-type mice. The experiment in a line: Excisional wound model, single 8-mm wound, topical treatment, wild-type mice. The format is in vivo, mouse. The source says: (§1) Single excisional wounds 8-mm in diameter were made with a biopsy punch (Miltex, York, Pa., USA) using aseptic technique in the shaved dorsal regions of female diabetic db/db mice and female wild-type mice under isoflurane anesthesia. […] Wounds were photographed and immediately covered with a sterile dressing (3M Tegaderm™ Transparent Dressing, Butler Schein Animal Health, Inc., Dublin, Ohio). Cellulose acetate collars were made in-house from expired films and mounted on the wild-type mice to prevent them from disturbing the wounds on their back. […] On days 1, 3, 7, 10, and 14, digital photographs of wounds were taken while animals were under isoflurane anesthesia. […] The wounds with minimal surrounding healthy tissue were excised and either flash-frozen in liquid nitrogen for protein expression profiling or embedded in optimal cutting temperature (OCT) compound (Tissue-Tek, Torrance, Calif., USA) followed by cryosectioning for histological assessment.
(§2) Digital images were analyzed for wound areas using the NIH ImageJ version 1.45 software. Photographs of each wound were taken using a digital camera (Olympus SP-800UZ, Center Valley, Pa., USA), which was statically mounted on a tripod at a fixed distance above the mouse wound. A ruler was included in the photographic frame to allow ImageJ calibration. The wound outline was defined from the photographic image and the ImageJ software calculated the wound area. Wound closure was expressed as the change in wound area relative to that from day 0.
(§3) Wound closures are expressed as mean±SD (n=35 on day 1; n=28 on day 3; n=21 on day 7; n=14 on day 10; n=7 on day 14). Wound closures and levels of MMP-8 and MMP-9 were analyzed using a paired Student t-test; p<0.05 was considered statistically significant.
(§4) Fresh wound tissue was cut, embedded in OCT compound, and cryosectioned at a thickness of 12-μm in preparation for hematoxylin-eosin (H&E) staining. Morphological assessment of re-epithelialization was performed on a Nikon Eclipse 90i Fluorescent Microscope (Nikon Instruments Inc., Melville, N.Y., USA) (Tkalcevic et al., Toxicol. Pathol. 37 (2), 183-192 (2009)). In situ gelatin zymography was performed as described (Oh et al., J. Neurosci. 19 (19), 8464-8475 (1999)). Briefly, unfixed cryostat sections (12-μm-thick) of wound tissues were incubated in a reaction buffer (50 mM TBS pH 7.6) containing DQ-gelatin conjugate (Molecular Probes, Eugene, Oreg., USA) at 37° C. for 6 h. After fixation in 4% paraformaldehyde in PBS, cells were counterstained with DAPI (Molecular Probes, Eugene, Oreg., USA) and the images were visualized by fluorescence microscopy.

The test system of test [2] is wounds of female diabetic db/db mice. The experiment in a line: Excisional diabetic wound model, single 8-mm wound, topical treatment. Type of test: in vivo, mouse.
Source text: as §1, §2, §3, §4

The subject of test [3] is gelatinase activity in wound tissues of diabetic mice. The experiment in a line: In-situ gelatin zymography with DQ-gelatin (Example 5). Type of test: in vivo, mouse. Conditions: db/db mice; compared to vehicle. The protocol:
as §4

Test [4] has as its system skin punch biopsy lesions of female diabetic mice (db/db mice). The experiment in a line: Chronic wound model, two 6-mm skin punch biopsy lesions, topical treatment. Type of test: in vivo, mouse.
Description: Female diabetic mice (db/db mice, 9-10 weeks old, Jackson Laboratory, Bar Harbour, Me.) (n=10 per group) were prepared for aseptic surgery by clipping the hair on the dorsal thorax and scrubbing the skin with betadine followed by alcohol. […] Each wound was covered with an occlusive dressing following biopsy. The mice recovered on a cage with clean bedding on a heating pad. Mice received buprenorphine subcutaneously (1.5-2.5 mg/kg) at the conclusion of surgery and again 3-5 hours later. Mice were administered 0.5 mL of warm sterile saline intraperitoneally at the conclusion of surgery. […] Wound closure was determined every day for each animal using the initial and final wound diameters, with the percentage wound closure calculated as [(initial−final)/initial]×100.
On day 12, half of the mice (n=10) were sacrificed and the wounds of each animal excised. The remaining mice continued treatment at the dosages provided above once a day until day 23, when they were sacrificed On the day of sacrifice, the wounds of each mouse were excised, and analyzed by histology, gelatin zymography and Western blot, and in situ gelatin zymography.
Female diabetic mice (db/db mice; 9-10 weeks old, Jackson Laboratory, Bar Harbour, Me.) (n=10 per group) were prepared for aseptic surgery by clipping the hair on the dorsal thorax and scrubbing the skin with betadine followed by alcohol. […] Each wound was covered with an occlusive dressing following biopsy. The mice recovered on a cage with clean bedding on a heating pad. Mice received buprenorphine subcutaneously (1.5-2.5 mg/kg) at the conclusion of surgery and again 3-5 hours later. Mice were administered 0.5 mL of warm sterile saline intraperitoneally at the conclusion of surgery. […] Wound closure was determined every day for each animal using the initial and final wound diameters, with the percentage wound closure calculated as [(initial−final)/initial]×100.
Female diabetic mice (db/db mice) (n=10 mice per group, n=2 wounds per mouse, 9-10 weeks old, Jackson Laboratory, Bar Harbour, Me.) were prepared for aseptic surgery by clipping the hair on the dorsal thorax and scrubbing the skin with betadine followed by alcohol. […] Each wound was covered with an occlusive dressing following biopsy. The mice recovered on a cage with clean bedding on a heating pad. Mice received buprenorphine subcutaneously (1.5-2.5 mg/kg) at the conclusion of surgery and again 3-5 hours later. Mice were administered 0.5 mL of warm sterile saline intraperitoneally at the conclusion of surgery. […] Wound closure was determined every day for each animal using the initial and final wound diameters, with the percentage wound closure calculated as [(initial−final)/initial]×100.
For test [5], the system named is animal models of cancer metastasis, stroke, hemorrhage, spinal cord and brain injury. Conditions: prostate, breast cancer and T-cell lymphoma metastasis, ischemic stroke, subarachnoid hemorrhage, traumatic brain injury, testosterone-induced neurogenesis; cited from earlier work.
Test [6] relates to wound gelatinolytic activity. The experiment in a line: In situ gelatin zymography of wound tissue (Example 3). The format is in vivo, mouse. Conditions: day 13; 0.25 mg/wound; compared to vehicle. The protocol: On day 7, half of the mice (n=10) were sacrificed and the wounds of each animal excised. […] On the day of sacrifice, the wounds of each mouse were excised, and analyzed by histology, gelatin zymography and Western blot, and in situ gelatin zymography. Specifically, one wound from each sacrificed animal was analyzed by in situ gelatin zymography, and one wound from each sacrificed animal was analyzed by gelatin zymography, followed by Western blot.
FIG. 2(A) is a graph of the wound closure measurements, determined every day of the study as [(initial−final)/initial]×100. […] FIG. 2(C) is a photograph of a representative skin lesion of a mouse treated with saline on day 13. […] Wound gelatinolytic activity is visualized using fluorescein isothiocyanate (FITC)-labeled substrate (right images), and 4′,6-diamidino-2-phenylindole (DAPI)-labeled […] (left images). […] Thus, gelatinolytic activity was suppressed in the gelatinase inhibitor-treated group (FIG. 2 (D)).

Take `Nc1ccc(Oc2ccc(S(=O)(=O)CC3CS3)cc2)cc1` (stereo not shown) [ND-322]: the “effect on wound healing compared to vehicle” value in test [1] (0.25 mg/wound/day topical, p>0.25) is “did not accelerate healing”; in test [2] (0.25 mg/wound/day topical), “accelerated wound healing”. The wound closure in test [1] (day 7, 0.25 mg/wound/day topical, n=21) was 62±19%; in test [1] (day 10, 0.25 mg/wound/day topical, n=14) it was 82±11%; in test [1] (day 14, 0.25 mg/wound/day topical, n=7) it was 96±4%; in test [2] (day 10, 0.25 mg/wound/day topical, n=14, p<0.05 vs vehicle), 70±16%; in test [2] (day 14, 0.25 mg/wound/day topical, n=7, p<0.01 vs vehicle), 92±4%. Also, the “re-epithelialization (H&E staining)” value in test [1] (day 14) was “completely re-epithelialized”; in test [2] (day 14) it was “complete re-epithelialization”. The “difference in wound closure vs vehicle” value in test [2] (days 1, 3, and 7, p>0.2) is reported as “not statistically significant”. Besides, the “gelatinase activity in wound tissues (in-situ zymography)” value in test [3] is given as “significantly decreased”.
On to `O=S(=O)(CC1CS1)c1ccc(Oc2ccccc2)cc1` (stereo not shown) [SB-3CT, 2-(((4-phenoxyphenyl)sulfonyl)methyl)thiirane], for which the wound closure in test [4] (at 13-14 days, SB-3CT-treated db/db mice (0.25 or 1.25 mg/wound per day)) is listed as above 90%; in test [4] (day 6, 0.25 mg/wound per day topical, vehicle DMSO, db/db mice), 49.6±14.0%; in test [4] (day 6, 1.25 mg/wound per day topical, vehicle DMSO, db/db mice) it was 50.0±7.4%. In addition, the “difference in wound closure between vehicle and treated mice” value in test [4] (starting on day 2, db/db mice, Example 1) was “Significant differences (p<0.05)”. Further, in test [5], the “efficacy in animal models” value is on record as “effective”.
Take `Nc1ccc(Oc2ccc(S(=O)(=O)CC3CS3)cc2)cc1` (stereo not shown) [p-amino SB-3CT]: the “difference in wound healing between treated and vehicle groups” value in test [4] (Example 3, 0.25 mg/wound once per day, 13 days, vehicle saline) is on record as “Significant differences in wound healing”. In test [4] (day 6, 0.25 mg/wound topical once per day, vehicle saline, db/db mice), this molecule came in with a wound closure of 37.0±9.5%. For the same molecule, the “wound gelatinolytic activity (in situ gelatin zymography)” value in test [6] is on record as “suppression of gelatinolytic activity”.
